Patent US20130157285A1, “IDENTIFICATION OF INVASIVE AND SLOW-GROWING TUMORIGENIC CELL SUBSETS IN TUMORS” (The Regents of the University of California, priority 2011, published 2013)

Columns and labels:
[1] = system: xenografts of MDA-MB-231 cells; experiment: Targeting of HA-based probes in tumor model; assay type: in vivo; settings: radiolabel, magnetic resonance and fluorescence labels
Text: (§1) We evaluated the targeting ability of HA-based probes in several modalities (radiolabel, magnetic resonance, and fluorescence) to areas of microenvironment remodeling that are associated with both tissue injury and tumor formation. We chose well-characterized rat balloon injured carotid arteries as a response to injury model, and xenografts of MDA-MB-231 cells as a tumor model.

[2] = system: MDA-MB-231; experiment: Fluorescent HA probe binding by flow cytometry (FACS); assay type: cell-based, human
Text: (§2) Simultaneous profiling of cell surface markers and HA binding/uptake required the establishment of a sensitive multiplexed detection method, which could detect both the cell surface receptors and the binding/uptake of ligand (HA). We utilized fluorescence-activated cell sorting (FACS) and established protocols for minimum decoration of cells by antibodies and HA, maximum detection sensitivity at the cell surface, and retained viability/functionality during and after sort. Fluorescent HA probes and antibodies were synthesized and characterized in a panel of human breast cancer cell lines (MDA-MB-231, SUM1315MO2, HS-578T, MDA-MB-468, HCC-1569, BT-20, MCF-10A, S1, T4-2, MCF-7, BT474, SK-BR3, AU565, MDA-MB-361, D920, SK3 [RHAMM−/− and CD44−/− were used as negative controls], and 10T½ [RHAMM+/+ were used as positive controls]). In brief, soluble HA (280,000 dalton) was linked to hydrazide-activated fluorochromes and monoclonal antibodies were directly conjugated to tetrafluorophenyl (TFP) ester activated fluorochromes (Alexa Fluor 647 and sometimes to Alexa Fluor 488) and reacted with the live cells under sterile dark conditions. Four fluorochromes were selected in a manner that provided minimal fluorescent spectral overlaps and maximal brightness for low-expressing markers, which allowed sensitive monitoring of subtle changes in marker expression and HA binding capacity in live cells. Near infrared fluorescence range was selected for HA to extend signal stability during multiple stages of characterizations (Alexa Fluor 647). […] As well, these appeared to non-specifically interact with each other and with cells, which would require extensive characterization and optimization. Therefore, we continued our study using minimally-decorated HA and antibodies by fluorochromes, as described below, and successfully profiled multiple cell surface markers.
(§3) (1) Grow cells to 50% confluence on culture flask; (2) Rinse in Ca^2+-free Hank's Buffered Saline Solution (HBSS/20 mM HEPES, pH 7.3); (3) Harvest cells with non-enzymatic HBSS-based cell dissociation solution; (4) Resuspend in cold and sterile PBS solution that contains Antibiotic, HEPES pH 7.4, Insulin, and Transferrin (PBS/additive solution); (5) Centrifuge and eliminate supernatant; (6) Wash in cold PBS/additive solution; (7) Count cells using cell counter instrument and measure viability; (8) Treat cells (in suspension) with Alexa Flour 647-HA; (9) Incubate for 45 min on ice, in dark.
(§4) For single-color HA-binding flow cytometry: (a) wash the cells, eliminate supernatant and adjust concentration of solution appropriate for flow cytometry and (b) perform live cell flow cytometry immediately.
(§5) Cells were grown to 50%-70% confluence in 75 cm^2 culture flasks in DMEM supplemented with 10% FCS at 37° C. and 5% CO2, then subcultured every 3-4 days. For HA uptake experiments, cells were grown to 50% subconfluence, which was achieved 12-20 hrs after subculture, in order to maximize RHAMM surface display. Cells were rinsed in Ca++-free Hanks Buffered Saline (HBSS) solution/20 mM HEPES, pH 7.3, and removed from the substratum by incubating in non-enzymatic HBSS-based solution (Sigma-Aldrich[H-6648]) for 2-3 min, which preserves cell surface epitopes (Veiseh M, et al, Biomacromolecules 2012, Hamilton S. R. et al, JBC, 2007). Viablity of cells was assessed using a Vi_CELL cell analyzer.
(§6) 0.2 ml of soluble HA (1% HA, MWav=280,000 dalton) was activated in 1 ml of a (0.0028 g/1 ml MES) N-(3-Dimethylaminopropyl)-N′-ethylcarbodiimide hydrochloride (EDAC) solution (Sigma-Aldrich) in 4-morpholineethanesulfonic acid (MES) (20 mM, pH 4.5, Sigma-Aldrich), and the resulting solution was reacted with 0.3 ml of A^647-HA hydrazide, tris(triethylammonium) salt (Invitrogen, 1 mg/ml in H2O) in the dark at RT. The solution was covered in aluminum foil and placed on a rocker for 12 hrs at room temperature. […]

[3] = system: MCF-10A; experiment: as above; assay type: cell-based, human; settings: Table 1, HA probe binding/uptake
Text: as §2, §3, §4, §5, §6

[4] = system: MCF-7; experiment: as above; assay type: cell-based, human; settings: Table 1, HA probe binding/uptake
Text: as §2, §3, §4, §5, §6

[5] = system: S1; experiment: as above; assay type: cell-based, human; settings: Table 1; SI (S1); HA probe binding/uptake
Text: as §2, §3, §4, §5, §6

[6] = system: T4-2; experiment: as above; assay type: cell-based, human
Text: as §2, §3, §4, §5, §6

[7] = system: SKBR-3; experiment: as above; assay type: cell-based, human
Text: as §2, §3, §4, §5, §6

[8] = Targeting of HA-based probes in response-to-injury model; assay type: in vivo, rat; settings: radiolabel, magnetic resonance and fluorescence labels
Text: as §1

[9] = system: MDA-MB-231 tumor cells; experiment: Extravasation efficiency in chick chorioallantoic membrane (CAM); assay type: in vivo, chicken embryos; settings: 24 hrs after injection into CAM vein; cells pre-treated with HA for 1 hour on ice
Description: Fertilized chicken eggs were incubated in a rotary incubator at 37° C. with 90% humidity for 4 days before being removed from the shell and placed in covered dishes and incubated at 37° C. with 90% humidity until usage (PMID:20671724). On day 13 of embryonic development, 7.5×10^4 tumor cells in 100 μL PBS were intravenously injected into a vein within the chorioallantoic membrane (CAM, N=5 each group) (PMID-20671724). Prior to injection, cancer cells were pre-treated with HA (100 mg/ml) or vehicle (PBS) for 1 hour on ice. […] At least 200 cells for each ROI at T=0 was analyzed and enumerated.
Extravasated tumor cells can be observed in interstitial spaces 24-72 hrs after their injection into CAM veins but by this time cell bound F-HA is not detectable since it has been metabolized (FIG. 22B). To determine if F-HA promotes extravasation of dt-Tomato expressing tumor cells, we therefore simply measured the number of extravasated tumor cells at varying times after injection with or without unlabeled HA, used at the same concentration and polydispersity as F-HA, with intravial confocal imaging (FIG. 22C-D). […] We next determined if exposing tumor cells to HA increased extravasation, choosing 24 hrs after injection rather than 72 hrs shown in FIG. 22C to reduce the contribution of proliferation to appearance of extravascular tumor colonies. […]

[10] = data obtained from Hyal Corporation, cited from earlier work
[11] = system: MDA-MB-231; experiment: Inhibition of HA probe uptake, confocal imaging; assay type: cell-based, human; settings: excess HA added either during or prior to addition of HA probe
[12] = Table 1, HA probe binding/uptake

With hyaluronan [HA] the “targeting of HA-based probes to tumor tissue” value [1] was “selective targeting”, the HA binding [2, 12] was “Very high” and the HA binding level ([2]; Table 6) was “HA^4+”. The HA binding [3] was “Medium”, the HA binding [4] was “Low” and the HA binding [5] was “Medium”. For the same substance, the HA binding [6, 12] was “High”, the HA binding level ([6]; Table 6) was “HA^2+” and the HA binding [7, 12] was “Low”. The HA binding level ([7]; Table 6) was “HA^+”, the “targeting of HA-based probes to injured tissue” value [8] was “selective targeting” and the “extravasation efficiency of tumor cells exposed to HA vs untreated cells” value [9] was “twice”. The “tolerability of HA injected I.V.” value ([10]; I.V. 1-12 mg/kg) was “well tolerated”, the “T½ from HA serum levels” value ([10]; I.V., 1.5 mg/kg dose) was 12 h and the “effect on signal of HA probe uptake” value [11] was “reduced”.
